≈ marks a conversion by molar mass, not a printed value.

What is called IC50 is the concentration at which inhibition is half-maximal. Read a high IC50 as weaker potency in that assay. As usually defined, the LD50 is the dose expected to kill half of the subjects tested. The low end stands for a more toxic substance, the high end for a less toxic substance.

In data set [1] the test system is human lung adenocarcinoma A549 cell. In words: Inhibition of human lung adenocarcinoma A549 cell growth in vitro (MTT assay). It counts as cell-based. To be noted: 168 h, A549 cells, seven days at 37° C. As to the method: Inhibition of human lung adenocarcinoma A549 cell growth in vitro by some compounds of the amino acid derivatives (I)
The cytotoxicity test was performed in microtiter plates, with each well containing 3×10^3 A549 cells in 100 μl Dulbecco's minimum essential medium supplemented with 10% fetal calf serum, penicillin (50 units/ml) and streptomycin (50 μg/ml). The cells were incubated at 37° C. for seven days and the colorimetric MTT (tetrazolium) assay was performed according to the method described by Mosmann (J. Immunol. Methods, 65, 55-63, 1983). MTT [3-(4,5-dimethylthiazol-2-yl)-2,5-diphenyl tetrazolium bromide, made by Sigma] was dissolved in PBS at 5 mg/ml and filtered to sterilize and remove a small amount of insoluble residue. After the culture of A549 cells was terminated, this MTT solution (10 μl per 100μl medium) was added to plates were further incubated at 37° C. for 4 hours. Acid-isopropanol (100 μl of 0.04N HCl in isopropanol) was added to all wells and mixed thoroughly to dissolve the dark blue crystals. After all crystals were dissolved, the plates were read on a 2-wavelength microplate photometer (Model MTP-22; Corona Electric Co., Ltd., Katsuta, Japan) at 550 nm, a reference wavelength of 660 nm. The object compound of this invention was dissolved and diluted in Dulbecco's minimum essential medium and added to the culture to give final concentration of 30μg/ml or less.
Background: Tetrazolium dyes change colour on reduction, which living cells bring about.

Data set [2] relates to human mammary adenocarcinoma MCF-7 cell. In words: Inhibition of human mammary adenocarcinoma MCF-7 cell growth in vitro (MTT assay). It counts as cell-based. Particulars: MCF7, 168 h, MCF-7 cells, seven days at 37° C. Here is the method:
Inhibition of human mammary adenocarcinoma MCF-7 cell growth in vitro by some compounds of the amino acid derivatives (I)
The cytotoxicity test was performed in microtiter plates, with each well containing 3×10^3 MCF-7 cells in 100 μl Eagle's minimum essential medium supplemented with 10% fetal calf serum, sodium pyruvate, nonessential amino acids, penicillin (50 units/ml) and streptomycin (50 μg/ml). The cells were incubated at 37° C. for seven days in humidified atomosphere of 5% carbon dioxide and 95% of air and the colorimetric MTT assay was performed as described in Test 1.
The test compound was dissolved and diluted in Eagle's minimum essential medium and added to the culture to give final concentration of 30 μg/ml or less.

A short description of data set [3]: Solubility of FR-900840 substance. It counts as physicochemical.
Data set [4] can be described thus: Acute toxicity in BDF1 mice by intravenous injection. To be noted: mouse, in vivo. As to the method: Acute toxicity of FR-900840 substance in BDF1 mice by intravenous injection is 180 mg/kg.

As for `C[C@@H](O)C(=[N+]=[N-])C(=O)OC[C@H](N)C(=O)O` [Example 1, O-[2-diazo-3(R)-hydroxy-1-oxobutyl]-L-serine], the IC50 in data set [1] turned out to be 0.012 ng/mL (≈ 0.0553 nM); in data set [2], 0.0018 ng/mL (≈ 0.00829 nM). The Solubility entry is given as “insoluble” in data set [3] (acetone); “insoluble” in data set [3] (benzene); “insoluble” in data set [3] (chloroform); “insoluble” in data set [3] (diethyl ether); “sparingly soluble” in data set [3] (ethanol); “insoluble” in data set [3] (ethyl acetate). Moreover, the Solubility entry is “sparingly soluble” in data set [3] (methanol) and “soluble” in data set [3] (water). Besides, the LD50 in data set [4] is 180 mg/kg.
Turning to `[N-]=[N+]=C(C(=O)OC[C@H](N)C(=O)O)C(O)c1ccccc1` (stereo partly shown) [Example 5], the half-inhibitory concentration (IC50) in data set [1] came out at 0.14 ng/mL (≈ 0.501 nM); in data set [2], 0.076 ng/mL (≈ 0.272 nM).
As for `C[C@H](O)C(=[N+]=[N-])C(=O)OC[C@H](N)C(=O)O` [Example 4, O-[2-Diazo-3(S)-hydroxy-1-oxobutyl]-L-serine], the results for the half-maximal inhibitory concentration (IC50) in data set [1] and in data set [2] were 0.018 ng/mL (≈ 0.0829 nM) and 0.00082 ng/mL (≈ 0.00378 nM), respectively.
On to `C[C@@H](O)C(=[N+]=[N-])C(=O)OC[C@H](NC(=O)C(F)(F)F)C(=O)O` [Example 2, O-[2-Diazo-3(R)-hydroxy-1-oxobutyl]-N-trifluoroacetyl-L-serine], for which the IC50 is 0.0105 ng/mL (≈ 0.0335 nM) in data set [1] and 0.0068 ng/mL (≈ 0.0217 nM) in data set [2].
In the case of `[N-]=[N+]=C(CO)C(=O)OC[C@H](N)C(=O)O` [Example 6, O-(2-Diazo-3-hydroxy-1-oxopropyl)-L-serine], the IC50 in data set [1] was 0.0018 ng/mL (≈ 0.00886 nM); in data set [2], 0.0017 ng/mL (≈ 0.00837 nM).
